For data set [1], the target named is human estrogen receptor β receptor (hERβ) (Homo sapiens, UniProt Q92731). Briefly: ERβ transactivation bioassay in recombinant CHO cells (rat oxytocin promoter, luciferase reporter). Format: cell-based. The conditions noted are these: for ERβ/ERα ratio: ERβ agonistic selectivity over ERα, transactivation data; for ERβ eudismic ratio: ratio of the activities of the eutomer and the distomer on ERβ; for EC50: transactivation of luciferase via hERβ in CHO cells, read-out: ERβ agonistic EC50. The method, then:
(§1) The estrogenic and antiestrogenic activity of compounds was determined in an in vitro bioassay with recombinant Chinese hamster ovary (CHO) cells stably co-transfected with the human estrogen receptor α (hERα) or β receptor (hERβ), the rat oxytocin promoter (RO) and the luciferase reporter gene (LUC). The estrogenic activity of a test compound to stimulate the transactivation of the enzyme luciferase mediated via the estrogen receptors hERα or hERβ is expressed in nM. The assay was performed as described by De Gooyer et al., Steroids 68 (2003), 21-30. Table 7. ERβ and ERα transactivation data
On the technique in general: A reporter such as luciferase makes a cellular process visible.

The target of data set [2] is T1, human estrogen receptor α (hERα) (Homo sapiens, UniProt P03372).
T1 sequence (P03372 1-595): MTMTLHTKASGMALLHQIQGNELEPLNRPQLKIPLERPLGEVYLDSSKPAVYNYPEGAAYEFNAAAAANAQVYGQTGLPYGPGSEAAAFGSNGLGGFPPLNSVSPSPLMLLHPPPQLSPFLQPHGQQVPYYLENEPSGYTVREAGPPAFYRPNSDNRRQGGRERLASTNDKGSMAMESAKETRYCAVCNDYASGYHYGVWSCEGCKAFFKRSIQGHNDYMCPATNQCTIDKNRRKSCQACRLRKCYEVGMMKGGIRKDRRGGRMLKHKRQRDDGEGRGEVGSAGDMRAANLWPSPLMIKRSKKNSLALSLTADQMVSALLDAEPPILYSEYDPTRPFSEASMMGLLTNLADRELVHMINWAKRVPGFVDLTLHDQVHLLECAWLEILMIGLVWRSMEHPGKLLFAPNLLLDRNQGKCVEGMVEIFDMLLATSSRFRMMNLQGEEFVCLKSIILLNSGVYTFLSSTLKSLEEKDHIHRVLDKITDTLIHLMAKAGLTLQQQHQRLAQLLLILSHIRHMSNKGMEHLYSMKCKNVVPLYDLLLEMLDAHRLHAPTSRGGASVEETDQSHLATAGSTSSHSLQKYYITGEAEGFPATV
Nature of the data set: ERα transactivation bioassay in recombinant CHO cells (rat oxytocin promoter, luciferase reporter). Format: cell-based. The conditions noted are these: ratio of the activities of the eutomer and the distomer on ERα. The protocol:
as §1

For data set [3], the system named is acinar epithelium of the ventral prostate. Nature of the data set: short-term prostate apoptosis and proliferation model in castrated rats. Format: in vivo, Wistar rats. The method, then:
Selected compounds were tested in a short-term prostate apoptosis and proliferation model in castrated rats.
Intact mature male Wistar rats (350-400 g) were castrated and left to recover for 1 week. 7 days after the castration rats received a single subcutaneous injection of testosterone buciclate (TB), a long-acting testosterone ester, in arachis oil (20 mg/kg) with a volume of 1 ml/kg and were subsequently treated once daily orally for 3 days with the test substance at doses between 0 and 1000 µg/kg, dissolved in gelatin/mannitol and dosed with a volume of 1 ml/kg.
At the end of the experiment rats were euthanized, the prostates were removed, weighed and processed for histology.
Apoptosis of the acinar epithelium of the ventral prostate was determined with TUNEL ([…]) staining. Apoptotic cells show nuclear DNA fragmentation and the TUNEL assay end-labels the fragmented DNA by incorporating biotinylated dUTP at the 3'-OH DNA ends using the enzyme Terminal deoxynucleotidyl Transferase (TdT). Positively stained cells are counted per acinus (glandular unit) in the ventral prostate. Proliferation of the acinar epithelium of the ventral prostate was determined by immunohistochemical staining with an antibody directed against Ki67 (clone Mib5). Positively stained cells are counted per acinus (glandular unit) in the ventral prostate. Statistical significance is determined as compared to TB alone by one-way ANOVA.

Data set [4] is described as follows: metabolic stability in human hepatocytes. In kind it is in vitro ADME. As to conditions: cryopreserved human hepatocytes in suspension, tetrahydronaphthalen-2-ol, 37°C, sampled 0-120 min, LC-MS/MS, read-out: Human hepatocyte T1/2. The method, then: A number of compounds 9, 11 and 12 were tested on metabolic stability in human hepatocytes. The hepatic stability was compared to corresponding chroman compounds 25, 26 or 27 (see structures below).
Test compounds were diluted to 3 µM in incubation medium. Then 40 µl of the 3 µM test compounds was pipetted into a 96 well microtiter plate (flat bottom). Hepatocytes (stored at -140 °C) were thawed in a 37°C water bath. The cells were resuspended into pre-warmed thawing medium and were centrifuged for 5 minutes at 50g at room temperature. The supernatant was discarded and the remaining cell pellet was resuspended in warm incubation medium and diluted to 7.5 E5 cells/ml. Then 80 µl of the cell suspension was added to each well of the 96 well microtiter plate containing the test compounds. The resulting mixture was incubated at 37°C and was sampled at t=0, 5, 30, 60, and 120 min. The samples were analyzed by LC-MS/MS to determine the content of unchanged test compound. Based on the rate of reduction of the content of test compound over time, the half-live (T1/2) was calculated. Metabolic stability in human hepatocytes

The structures appear in SMILES notation.

human estrogen receptor β receptor (hERβ), sequence (Q92731 whole entry): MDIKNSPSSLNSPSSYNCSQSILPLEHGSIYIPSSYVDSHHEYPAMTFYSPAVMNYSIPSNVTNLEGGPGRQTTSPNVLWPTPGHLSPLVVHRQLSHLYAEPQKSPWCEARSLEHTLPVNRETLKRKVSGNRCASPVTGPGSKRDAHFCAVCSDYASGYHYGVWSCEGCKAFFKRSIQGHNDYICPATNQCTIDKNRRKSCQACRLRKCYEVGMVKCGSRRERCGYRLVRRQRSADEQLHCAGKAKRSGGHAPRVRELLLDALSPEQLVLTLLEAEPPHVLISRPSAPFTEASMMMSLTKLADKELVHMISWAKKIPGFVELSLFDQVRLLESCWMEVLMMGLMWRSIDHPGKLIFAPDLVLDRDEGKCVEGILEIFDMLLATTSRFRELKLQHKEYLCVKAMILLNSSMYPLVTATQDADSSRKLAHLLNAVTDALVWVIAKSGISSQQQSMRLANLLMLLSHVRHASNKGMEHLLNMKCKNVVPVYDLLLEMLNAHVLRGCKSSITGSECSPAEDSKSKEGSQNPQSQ

Consider `C[C@H]1[C@@H](c2ccc(O)cc2)Cc2ccc(O)cc2[C@H]1Cc1ccccc1F` (single isomer, unassigned) [Compound 11a], for which, in data set [1], the ERβ/ERα ratio worked out at 189, the ERβ eudismic ratio is recorded as greater than 263 and the EC50 was 0.38 nM. Moreover, the ERα eudismic ratio in data set [2] is greater than 1.4. Also, the epithelial cell proliferation entry in data set [3] (Ki67 staining, ventral prostate, at 3 µg/kg orally, compared to TB-alone treated rats) is given as “decrease”. Moreover, the epithelial cell apoptosis entry in data set [3] (TUNEL staining, ventral prostate, castrated rats given TB, treated once daily orally for 3 days, compared to TB alone) is recorded as “statistically significant (p<0.01) increase”. In data set [3] (increase in epithelial cell apoptosis, once daily orally for 3 days), the “minimal active dose (MAD)” value is 3 µg/kg. Moreover, in data set [4], the half-life at 1 µM is 40.5 min.

In the case of `CC[C@H]1[C@@H](c2ccc(O)cc2)Cc2ccc(O)cc2[C@H]1Cc1ccccc1F` (single isomer, unassigned) [Compound 11b], in data set [1], the ERβ/ERα ratio was determined as 167, the ERβ eudismic ratio was 93 and the EC50 was determined as 0.15 nM. Besides, the ERα eudismic ratio in data set [2] is 0.9. Further, the half-life at 1 µM in data set [4] is 40.7 min.

In the case of `C[C@H]1[C@@H](c2ccc(O)cc2)Cc2ccc(O)cc2[C@H]1Cc1cccc(F)c1` (single isomer, unassigned) [Compound 11f], in data set [1], the ERβ/ERα ratio worked out at 21, the ERβ eudismic ratio was 13 and the EC50 was 1.2 nM. For the same compound, in data set [2], the ERα eudismic ratio is on record as greater than 4.

For the compound `C[C@H]1[C@@H](c2ccc(O)cc2)Cc2ccc(O)cc2[C@H]1Cc1ccc(F)cc1` (single isomer, unassigned) [Compound 11g], in data set [1], the ERβ/ERα ratio came out at 19, the ERβ eudismic ratio came out at 9 and the EC50 was 1.4 nM. For the same compound, in data set [2], the ERα eudismic ratio was greater than 4.

Turning to `CC[C@H]1[C@@H](c2ccc(O)c(F)c2)Cc2ccc(O)cc2[C@H]1Cc1ccccc1F` (single isomer, unassigned) [Compound 11q], in data set [1], the ERβ/ERα ratio is greater than 169, the ERβ eudismic ratio is recorded as 7 and the 50% effective concentration (EC50) was 0.59 nM. Further, in data set [2], the ERα eudismic ratio was less than 0.3. In data set [4], the half-life at 1 µM came out at 82.2 min.

With `CC[C@H]1[C@@H](c2ccc(O)cc2)Cc2ccc(O)cc2[C@H]1Cc1ccc(F)cc1` (single isomer, unassigned) [Compound 11w], in data set [1], the ERβ/ERα ratio is recorded as 61, the ERβ eudismic ratio is recorded as 42 and the EC50 stood at 0.36 nM. Further, in data set [2], the ERα eudismic ratio is given as 0.4.

By EC50 is commonly meant the midpoint of the concentration-response curve.
